One assay relates to LPS-Induced Serum TNF. Briefly: In vivo inhibition of LPS-induced serum TNF in mice. Further details: species or system mice (C57BI/6J). The conditions noted are these: Mus musculus, 1.5 h; 25 mg/kg oral or i.p. one hour before LPS (50 μg i.p.); bled 90 min after LPS; ELISA; values may have a wide margin of error. The method, then:
In addition to the in vitro test described above, the following in vivo test was also performed on several of the compounds of the present invention.
1. In Vivo Study: Inhibition of LPS-Induced Serum TNF
Mice (C57BI/6J males, 6-8 weeks of age) are dosed with the indicated compound (dissolved in CMC suspension vehicle; compounds are given orally or i.p. one hour before LPS challenge).
Mice are bled 90 min after LPS challenge.
4) Sera are analyzed for TNF content by ELISA as described in J. Immunol.

Assay [1] has as its system LPS-Induced TNF-α Production From the Murine Cell Line WEHI-265. Briefly: In vitro inhibition of LPS-induced TNF-α production from the murine cell line WEHI-265. It is filed as cell-based. As to conditions: Mus musculus, WEHI-265 cells, LPS from E. coli 0111:B4, 20-24 h incubation. The method, then: This test procedure is a standard test used to determine anti-TNF-α activity and to evaluate the usefulness of said compounds for counteracting the biological effects of TNF-α.
1. In Vitro Study: Inhibition of LPS-Induced TNF-α
Production From the Murine Cell Line WEHI-265
1) Cells (obtained from cell cultures containing≤10^6 cells/ml) are suspended at 0.2×10^6 cells/ml in complete medium (RPMI1640, with 10% FCS, 10^-5 M 2-ME, 2 mM glutan-fine and 10 mM HEPES buffer) and plated in CoStar 24 well plates (1.0 ml/well).
2) Compounds are dissolved in the appropriate vehicle at 400 times the concentration to be tested, and 5 μl of compound is added to the wells.
3) LPS (from E. coli 0111:B4) is diluted to 6 μg/ml and 1.0 ml is added to wells.
4) Plates are incubated 20-24 hours in 37° CO2 incubator.
5) Supernatant fluids are collected and analyzed for TNF content as described in J. Immunol., 142:3884.

Assay [2] deals with LPS/Galactosamine-Induced Lethality. Briefly: In vivo inhibition of LPS/galactosamine-induced lethality in mice. As to conditions: 25 mg/kg oral or i.p. one hour before LPS (100 ng) and d-galactosamine (8 mg) i.p.; survival at 24 hours. Further details: species or system mice (C57BI/6J). The protocol:
This test procedure is a standard test used to determine activity against septic shock.
3. In Vivo Study: Inhibition of LPS/Galactosamine-Induced Lethality.
1) Mice (C57BI/6J males, 6-8 weeks of age) are dosed with the indicated compound (dissolved in CMC suspension vehicle; compounds are given orally or i.p. one hour before challenge with LPS and d-galactosamine).
2) Mice are challenged i.p. with a mixture of LPS (from E. coli 0111:B4; 100 ng) and d-galactosamine (8 mg).
3) Survival is determined 24 hours after challenge. See procedure published in J. Exp. Med. 165:657 (1987)

With `C=CCC(CNC)C1c2ccccc2COc2ccccc21` (stereo not shown) [Compound IA, N-methyl-2-[6,11-dihydro-dibenzo[b,e]oxepin-11-yl]-pent-4-en-1-amine], 25 mg/kg produced 44% inhibition in vivo in the assay with LPS-Induced Serum TNF. For the same molecule, 10 µM produced 54% inhibition in assay [1]. For `CCOC(CN(C)C)C1c2ccccc2CCc2ccccc21` (stereo not drawn) [Compound IB, β-ethoxy-10,11-dihydro-N, N-dimethyl-5 H-dibenzo[a,d]cycloheptene-5-ethanamine], the inhibition in vivo at 25 mg/kg in the assay with LPS-Induced Serum TNF was determined as 25%. Moreover, the “# DEAD/TOTAL AT 25 MG/KG” value in assay [2] is 8/10. Moreover, in assay [1], the inhibition at 10 µM was found to be 35%.

`C=CC(CCN(C)C)C1c2ccccc2CCc2ccccc21` (stereo not shown) [Compound IC, 3-(10,11-dihydro-5H-dibenzo[a,d]cyclohepten-5-yl)-N,N-dimethyl-4-pentenamine] gave an inhibition at 10 µM in assay [1] of 46%. For the molecule `CCOC(C(=O)N(C)C)C1c2ccccc2CCc2ccccc21` (stereo not shown) [Compound IE, 2-ethoxy-2-[10,11-dihydro-5H-dibenzo[a,d]cyclohepten-5-yl]-N,N-dimethyl-acetamide], at 25 mg/kg the inhibition in vivo in the assay with LPS-Induced Serum TNF was 37%. Moreover, in assay [2], the “# DEAD/TOTAL AT 25 MG/KG” value is on record as 10/10. This molecule also displayed an inhibition at 10 µM in assay [1] of 49%.

`CNCCC1c2ccccc2CCc2ccccc21` [Compound K1] returned an inhibition in vivo at 25 mg/kg in the assay on LPS-Induced Serum TNF of 71%. In assay [2], the “# DEAD/TOTAL AT 25 MG/KG” value is 1/10. The same molecule gave an inhibition at 10 µM in assay [1] of 15%.

Molecule `CCCC(CN(C)C)C1c2ccccc2COc2ccccc21` (stereo not shown) [Compound K2] had an inhibition in vivo at 25 mg/kg with LPS-Induced Serum TNF of 40%. In assay [2], the “# DEAD/TOTAL AT 25 MG/KG” value was 7/10. In addition, in assay [1], the inhibition at 10 µM came out at 54%. In turn, `CCCC(CNC)C1c2ccccc2COc2ccccc21` (stereo not shown) [Compound K3, N-methyl-2-[6,11-dihydro-dibenzo[b,e]oxepin-11-yl]-pentanamine] returned an inhibition in vivo at 25 mg/kg with LPS-Induced Serum TNF of 27%. Also, the inhibition at 10 µM in assay [1] came out at 73%. With `CCCC(CN(C)C(=O)OCC)C1c2ccccc2COc2ccccc21` (stereo not shown) [Compound K4], 10 µM produced 48% inhibition in assay [1]. `CCCC(CN(C)C(C)=O)C1c2ccccc2COc2ccccc21` (stereo not shown) [Compound K5]: the “# DEAD/TOTAL AT 25 MG/KG” value in assay [2] is 10/10. Further, the inhibition at 10 µM in assay [1] was determined as 46%.

Regarding `CCCC(CN(C)C)C1c2ccccc2CCc2ccc(Cl)cc21` (stereo not shown) [Compound K6], the inhibition at 10 µM in assay [1] came out at 64%. `CCCC(CNC)C1c2ccccc2CCc2ccc(Cl)cc21` (stereo not shown) [Compound K7] displayed an inhibition in vivo at 25 mg/kg in the assay on LPS-Induced Serum TNF of 58%. This molecule also returned an inhibition at 10 µM in assay [1] of 39%.

For the molecule `CN(C)CC(O)C1c2ccccc2CCc2ccccc21` (stereo not shown) [IF], in the assay with LPS-Induced Serum TNF, 25 mg/kg produced 24% inhibition in vivo. The “# DEAD/TOTAL AT 25 MG/KG” value in assay [2] is listed as 8/10. In assay [1], this molecule displayed an inhibition at 10 µM of 4%. The matching figures for `CCOC(CNC)C1c2ccccc2CCc2ccccc21` (stereo not shown) [IG]: 51%, 7/9 and 35%. The molecule `C=CCC(CN(C)C)C1c2ccccc2COc2ccccc21` (stereo not shown) [IH] returned an inhibition in vivo at 25 mg/kg in the assay with LPS-Induced Serum TNF of 30%. Moreover, in assay [1], at 10 µM the inhibition was 23%. With `C=CCC(CN(C)C(C)=O)C1c2ccccc2COc2ccccc21` (stereo not shown) [IJ], the inhibition at 10 µM in assay [1] was found to be 34%. `C=CCC(CN(C)C(=O)OCC)C1c2ccccc2COc2ccccc21` (stereo not shown) [IK]: the inhibition at 10 µM in assay [1] stood at 31%. For `C=CCC(CN(C)C(C)=O)C1c2ccccc2CCc2ccc(Cl)cc21` (stereo not shown) [IL], at 25 mg/kg the inhibition in vivo in the assay with LPS-Induced Serum TNF was 42%. In assay [1], this molecule came in with an inhibition at 10 µM of 49%.

In assay [1], `C=CCC(CN(C)C)C1c2ccccc2CCc2ccc(Cl)cc21` (stereo not shown) [IM] yielded an inhibition at 10 µM of 50%. Regarding `C=CCC(CNC)C1c2ccccc2CCc2ccc(Cl)cc21` (stereo not shown) [IN], the inhibition at 10 µM in assay [1] was 28%.

(Values after patent publication US5574173A, “Tricyclic derivatives, compositions and methods of use” (Schering Corporation, priority 1993, dated 1996).)
